Results: PubChem BioAssay AID328 (DTP/NCI, 2004)
Where “and” joins values, the source holds several entries; their conditions need not be identical. Identical values can stand only once. Toxic doses and inconclusive results are not listed.

Tested on: BDF1 mice, P388 leukemia ip, median survival T/C
Experiment: NCI In Vivo Anticancer Drug Screen. Data for tumor model P388 Leukemia (intraperitoneal) in B6D2F1 (BDF1) mice
Settings: endpoint: median survival time, higher = longer survival
Method in brief: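 Reported as T/C, where T is the survival measurement in dosed animals and C the same measurement in vehicle controls.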

[1] = dose: 50.0 mg/kg/injection, schedule: Q01DX001 (ip), vehicle: saline with Tween-80
[2] = dose: 100.0 mg/kg/injection, schedule: Q01DX001 (ip), vehicle: saline with Tween-80
[3] = dose: 200.0 mg/kg/injection, schedule: Q01DX001 (ip), vehicle: saline with Tween-80
[4] = dose: 400.0 mg/kg/injection, schedule: Q01DX001 (ip), vehicle: saline with Tween-80
[5] = dose: 50.0 mg/kg/injection, schedule: Q01DX009 (ip), vehicle: saline with Tween-80
[6] = dose: 100.0 mg/kg/injection, schedule: Q01DX009 (ip), vehicle: saline with Tween-80
[7] = dose: 200.0 mg/kg/injection, schedule: Q01DX009 (ip), vehicle: saline with Tween-80
[8] = dose: 100.0 mg/kg/injection, schedule: Q04DX003 (ip), vehicle: Klucel (hydroxypropylcellulose) (HPC)
[9] = dose: 200.0 mg/kg/injection, schedule: Q04DX003 (ip), vehicle: Klucel (hydroxypropylcellulose) (HPC)
[10] = dose: 25.0 mg/kg/injection, schedule: Q04DX003 (ip), vehicle: saline
[11] = dose: 50.0 mg/kg/injection, schedule: Q04DX003 (ip), vehicle: saline
[12] = dose: 100.0 mg/kg/injection, schedule: Q04DX003 (ip), vehicle: saline
[13] = dose: 200.0 mg/kg/injection, schedule: Q04DX003 (ip), vehicle: saline
[14] = dose: 400.0 mg/kg/injection, schedule: Q01DX009 (ip), vehicle: saline with Tween-80
[15] = dose: 100.0 mg/kg/injection, schedule: Q04DX003 (ip), vehicle: saline with Tween-80
[16] = dose: 200.0 mg/kg/injection, schedule: Q04DX003 (ip), vehicle: saline with Tween-80

## O=C(O)c1ccccc1C(=O)OC1=CS(=O)(=O)CC1
[1]
  T/C: 93 % of control
[2]
  T/C: 96 % of control
[3]
  T/C: 97 % of control
[4]
  T/C: 110 % of control

## Cc1cc(S(=O)(=O)c2ccc(Cl)c(C)c2)ccc1Cl
[5]
  T/C: 105 % of control
[6]
  T/C: 100 % of control
[7]
  T/C: 91 % of control

## CCCCC(=O)c1ccc(Cl)cc1
dose: 100.0 mg/kg/injection, schedule: Q01DX009 (ip), vehicle: Klucel (hydroxypropylcellulose) (HPC)
  T/C: 105 % of control
[8]
  T/C: 104 % of control
dose: 200.0 mg/kg/injection, schedule: Q01DX009 (ip), vehicle: Klucel (hydroxypropylcellulose) (HPC)
  T/C: 110 % of control
[9]
  T/C: 100 % of control
dose: 400.0 mg/kg/injection, schedule: Q01DX009 (ip), vehicle: Klucel (hydroxypropylcellulose) (HPC)
  T/C: 115 % of control
dose: 400.0 mg/kg/injection, schedule: Q04DX003 (ip), vehicle: Klucel (hydroxypropylcellulose) (HPC)
  T/C: 100 % of control

## C[P+](c1ccc(Cl)cc1)(c1ccc(Cl)cc1)c1ccc(Cl)cc1
dose: 6.25 mg/kg/injection, schedule: Q04DX003 (ip), vehicle: saline
  T/C: 100 % of control
dose: 12.5 mg/kg/injection, schedule: Q04DX003 (ip), vehicle: saline
  T/C: 104 % of control
[10]
  T/C: 109 % of control

## CCc1ccc(O)c(C(=O)c2c[nH]c(=O)c(C(N)=O)c2)c1
dose: 50.0 mg/kg/injection, schedule: Q04DX002 (ip), vehicle: saline with Tween-80
  T/C: 103 % of control
dose: 100.0 mg/kg/injection, schedule: Q04DX002 (ip), vehicle: saline with Tween-80
  T/C: 94 % of control
dose: 200.0 mg/kg/injection, schedule: Q04DX002 (ip), vehicle: saline with Tween-80
  T/C: 99 % of control

## C#CC(C)OCC1CO1 (configuration not stated)
dose: 50.0 mg/kg/injection, schedule: Q01DX009 (ip), vehicle: saline
  T/C: 91 % of control
[11]
  T/C: 108 % of control
dose: 100.0 mg/kg/injection, schedule: Q01DX009 (ip), vehicle: saline
  T/C: 95 % of control
[12]
  T/C: 91 % of control
[13]
  T/C: 108 % of control

## CC1=Nc2ccccc2N(C)/C1=C/C1=C(Cl)C(=O)c2ccccc2C1=O
dose: 25.0 mg/kg/injection, schedule: Q01DX001 (ip), vehicle: saline with Tween-80
  T/C: 103 % of control
[1]
  T/C: 94 % of control
[2]
  T/C: 108 % of control

## CC(C)C(C=O)C(O)(C(F)(F)F)C(F)(F)Cl (configuration not stated)
dose: 12.5 mg/kg/injection, schedule: Q01DX009 (ip), vehicle: saline
  T/C: 95 % of control
dose: 25.0 mg/kg/injection, schedule: Q01DX009 (ip), vehicle: saline
  T/C: 100 % of control

## CC1(C)CNC2OC1NCC2(C)C
dose: 100.0 mg/kg/injection, schedule: Q01DX001 (ip), vehicle: saline sonified
  T/C: 100 % of control
dose: 200.0 mg/kg/injection, schedule: Q01DX001 (ip), vehicle: saline sonified
  T/C: 100 % of control
dose: 400.0 mg/kg/injection, schedule: Q01DX001 (ip), vehicle: saline sonified
  T/C: 104 % of control

## [Cl][Ni][Cl].[NH-]CCN1CC1.[NH-]CCN1CC1
dose: 6.25 mg/kg/injection, schedule: Q01DX001 (ip), vehicle: saline
  T/C: 100 % of control
dose: 12.5 mg/kg/injection, schedule: Q01DX001 (ip), vehicle: saline
  T/C: 100 % of control
dose: 25.0 mg/kg/injection, schedule: Q01DX001 (ip), vehicle: saline
  T/C: 100 % of control

## C/C1=C/C2=CC(C)C[C@@H]2C(=O)[C@]2(C)C(=O)CC(C)(C)[C@H]2CC1=O (some centres not stated)
dose: 0.12 mg/kg/injection, schedule: Q01DX009 (ip), vehicle: alcohol
  T/C: 106 % of control
dose: 0.25 mg/kg/injection, schedule: Q01DX009 (ip), vehicle: alcohol
  T/C: 122 % of control
dose: 1.4 mg/kg/injection, schedule: Q01DX009 (ip), vehicle: alcohol
  T/C: 108 % of control
dose: 2.2 mg/kg/injection, schedule: Q01DX009 (ip), vehicle: alcohol
  T/C: 110 % of control

## CC1(C)CCCC2(C)C3CCC(C31)C2OC(=O)c1ccc([N+](=O)[O-])cc1 (configuration not stated)
[1]
  T/C: 100 % of control
[2]
  T/C: 100 % of control
[3]
  T/C: 105 % of control

## COC(=O)C(CC(O)c1ccccc1)N1CCOCC1 (configuration not stated)
[2]
  T/C: 100 % of control
[3]
  T/C: 100 % of control
[4]
  T/C: 100 % of control

## CNC(=O)C(C)C1C(=O)/C(=C(O)/C=C\C(C)=C\C(C)C2OC3(C)OC(C=CC34CO4)C2C)C(=O)N1C1CCC(O)C(C)O1 (configuration not stated)
[6]
  T/C: 109 % of control
[7]
  T/C: 100 % of control
[14]
  T/C: 109 % of control

## OCC1CC[N-]CC1.OCC1CC[N-]CC1.[Cl][Pt+2]([Cl])([Cl])[Cl]
[10]
  T/C: 104 % of control
[11]
  T/C: 101 % of control
[12]
  T/C: 118 % of control

## O=S(=O)(C=C(N1CCCCC1)N1CCCCC1)Cc1ccccc1
dose: 8.75 mg/kg/injection, schedule: Q01DX009 (ip), vehicle: saline
  T/C: 105 % of control
dose: 17.5 mg/kg/injection, schedule: Q01DX009 (ip), vehicle: saline
  T/C: 115 % of control
dose: 26.25 mg/kg/injection, schedule: Q04DX003 (ip), vehicle: saline
  T/C: 108 % of control
dose: 35.0 mg/kg/injection, schedule: Q01DX009 (ip), vehicle: saline
  T/C: 105 % of control
dose: 52.5 mg/kg/injection, schedule: Q04DX003 (ip), vehicle: saline
  T/C: 104 % of control

## CCN(CC)CCNc1ccc(CO)c2sc3ccc(O)cc3c(=O)c12
dose: 9.88 mg/kg/injection, schedule: Q04DX002 (ip), vehicle: saline with Tween-80
  T/C: 163 % of control
dose: 18.75 mg/kg/injection, schedule: Q04DX002 (ip), vehicle: saline with Tween-80
  T/C: 207 % of control
dose: 37.5 mg/kg/injection, schedule: Q04DX002 (ip), vehicle: saline with Tween-80
  T/C: 179 % of control
dose: 75.0 mg/kg/injection, schedule: Q04DX002 (ip), vehicle: saline with Tween-80
  T/C: 207 % of control

## CCC[CH2][Sn]1([CH2]CCC)[S]CC[N]1S(=O)(=O)c1ccc(C)cc1
dose: 3.0 mg/kg/injection, schedule: Q01DX009 (ip), vehicle: gum acacia
  T/C: 119 % of control

## CCCCS(=O)/C=C\C(=O)NCCC (configuration not stated)
dose: 25.0 mg/kg/injection, schedule: Q01DX009 (ip), vehicle: saline with Tween-80
  T/C: 100 % of control
[5]
  T/C: 99 % of control
[6]
  T/C: 100 % of control

## CCC(CCC(C)C1CCC2C3CC=C4CC(OC5OC(CO)C(O)C(O)C5O)CCC4(C)C3CCC12C)C(C)C (configuration not stated)
[8]
  T/C: 95 % of control
[9]
  T/C: 95 % of control

## CC(=O)Nc1c2sscc-2n(C)c1=O
dose: 0.39 mg/kg/injection, schedule: Q01DX009 (ip), vehicle: saline with Tween-80
  T/C: 97 % of control
dose: 0.78 mg/kg/injection, schedule: Q01DX009 (ip), vehicle: saline with Tween-80
  T/C: 104 % of control

## CN(C)CC(=O)c1ccc(O)c(O)c1
dose: 300.0 mg/kg/injection, schedule: Q01DX010 (ip), vehicle: saline
  T/C: 150 % of control

## OCCNCc1ccc2ccccc2n1
[12]
  T/C: 100 % of control
[13]
  T/C: 100 % of control

## CCOC(=O)/C=C/c1ccco1
[5]
  T/C: 100 % of control
dose: 50.0 mg/kg/injection, schedule: Q04DX003 (ip), vehicle: saline with Tween-80
  T/C: 104 % of control
[6]
  T/C: 88 % of control
[15]
  T/C: 109 % of control
[7]
  T/C: 88 % of control
[16]
  T/C: 109 % of control

## O=S(=O)(Nc1ccc(-c2ccccc2)cc1)c1ccccc1
[5]
  T/C: 108 % of control
[6]
  T/C: 101 % of control
[7]
  T/C: 101 % of control
[14]
  T/C: 106 % of control

## C=C1C(=O)OCC2C(C(=O)O)=CC3C(C)C(C)=CC123 (configuration not stated)
dose: 2.5 mg/kg/injection, schedule: Q01DX009 (ip), vehicle: other
  T/C: 105 % of control
dose: 5.0 mg/kg/injection, schedule: Q04DX003 (ip), vehicle: other
  T/C: 117 % of control
dose: 10.0 mg/kg/injection, schedule: Q01DX009 (ip), vehicle: Klucel (hydroxypropylcellulose) (HPC)
  T/C: 105 % of control and 121 % of control
dose: 10.0 mg/kg/injection, schedule: Q04DX003 (ip), vehicle: other
  T/C: 111 % of control
dose: 20.0 mg/kg/injection, schedule: Q01DX009 (ip), vehicle: Klucel (hydroxypropylcellulose) (HPC)
  T/C: 117 % of control and 120 % of control
dose: 20.0 mg/kg/injection, schedule: Q04DX003 (ip), vehicle: other
  T/C: 124 % of control
dose: 40.0 mg/kg/injection, schedule: Q01DX009 (ip), vehicle: Klucel (hydroxypropylcellulose) (HPC)
  T/C: 121 % of control
dose: 40.0 mg/kg/injection, schedule: Q04DX003 (ip), vehicle: other
  T/C: 119 % of control

## CC(/C=C/c1ccccc1)=Nc1ccc(C)cc1
[15]
  T/C: 104 % of control
[16]
  T/C: 101 % of control
dose: 400.0 mg/kg/injection, schedule: Q04DX003 (ip), vehicle: saline with Tween-80
  T/C: 104 % of control
